Test results from patent US5910504A, “Hetero-aromatic ring substituted phenyloxazolidinone antimicrobials” (Pharmacia & Upjohn, priority 1997, dated 1999).
In brackets after ≈: the same amount, converted by molar mass. Several values for one entry are separate records, joined by “and”; a condition that tells them apart may be missing. Equal values may be shown once. Read-outs that look alike come from different tables or passages of the source.

How the values were obtained:
[1] = system: S. pneumoniae, UC 9912; test: In vitro activity: minimum inhibitory concentration (MIC) by agar dilution, S. pneumoniae; format: cell-based; conditions: Streptococcus pneumoniae
Description: (§1) The oxazolidinone antibacterial agents of this invention have useful activity against a variety of organisms. The in vitro activity of compounds of this invention can be assessed by standard testing procedures such as the determination of minimum inhibitory concentration (MIC) by agar dilution as desribed in "Methods for Dilution Antimicrobial Susceptibility Tests for Bacteria That Grow Aerobically" (MFT) published January 1983 by the National Committee for Clinical Laboratory Standards, 771 East Lancaster Avenue, Villanova, Pa. 19084, USA. The activity of selected compounds of this invention against Staphylococcus aureus and Streptococcus pneumoniae are shown in Table 1.

[2] = system: S. aureus, UC 9213; test: In vitro activity: minimum inhibitory concentration (MIC) by agar dilution, S. aureus; format: cell-based; conditions: Staphylococcus aureus
Description: as §1

[3] = system: S. aureus, UC 9213; test: In vivo antimicrobial activity, Murine Assay procedure; parameters: species or system Staphylococcus aureus (infected female mice); conditions: oral or subcutaneous; for ED50: Staphylococcus aureus, UC9213, 144 h
Protocol: Antimicrobial activity was tested in vivo using the Murine Assay procedure. Groups of female mice (six mice of 18-20 grams each) were injected intraperitoneally with bacteria which were thawed just prior to use and suspended in brain heart infusion with 4% brewers yeast UC9213 (Staphylococcus aureus) or brain heart infusion (Streptococcus species). Antibiotic treatment at six dose levels per drug was administered one hour and five hours after infection by either oral intubation or subcutaneous ("subcut.") routes. Survival was observed daily for six days. ED50 values based on mortality ratios were calculated using probit analysis. The subject compounds were compared against a well-known antimicrobial (Vancomycin) as a control.

[4] = UC9912, agar dilution, read-out: Minimum Inhibitory Concentration, S. pneumoniae, UC 9912
[5] = UC9213, agar dilution, read-out: Minimum Inhibitory Concentration, S. aureus, UC 9213
[6] = female mice, i.p. infection, drug 1 h and 5 h after infection, six-day survival, probit, read-out: ED50, S. aureus, UC 9213

Row | MIC [1, 4] [µg/mL] | MIC [2, 5] [µg/mL] | Compound | further results
1 | < 0.5 | < 0.5 | CC(=O)NC[C@H]1CN(c2ccc(-n3cccc3)c(F)c2)C(=O)O1 [Example 1, (S)-N-[[3-[3-Fluro-4-(1H-pyrrol-1-yl)phenyl]-2-oxo-5-oxazolidinyl]methyl]acetamide] | –
2 | 1 (≈ 3.14 µM) | 2 (≈ 6.28 µM) | CC(=O)NC[C@H]1CN(c2ccc(-n3cccn3)c(F)c2)C(=O)O1 [Example 2, (S)-N-[[3-[3-Fluoro-4-(1H-pyrazol-1-yl)phenyl]-2-oxo-5-oxazolidinyl]methyl]acetamide] | –
3 | < 0.5 | 2 (≈ 6.28 µM) | CC(=O)NC[C@H]1CN(c2ccc(-n3ccnc3)c(F)c2)C(=O)O1 [Example 3, (S)-N-[[3-[3-Fluoro-4-(1H-imidazol-1-yl)phenyl]-2-oxo-5-oxazolidinyl]methyl]acetamide] | ED50 [3, 6]: 9.5 mg/kg
4 | 1 (≈ 3.13 µM) | 4 (≈ 12.5 µM) | CC(=O)NC[C@H]1CN(c2ccc(-n3cncn3)c(F)c2)C(=O)O1 [Example 4, (S)-N-[[3-[3-Fluoro-4-(1H-1,2,4-triazol-1-yl)phenyl]-2-oxo-5-oxazolidinyl]methyl]acetamide] | ED50 [3, 6]: 5.7 mg/kg
5 | 1 (≈ 2.72 µM) | 4 (≈ 10.9 µM) | CC(=O)NC[C@H]1CN(c2ccc(-n3ccc4ccccc43)c(F)c2)C(=O)O1 [Example 5, (S)-N-[[3-[3-Fluoro-4-(1H-indol-1-yl)phenyl]-2-oxo-5-oxazolidinyl]methyl]acetamide] | –
6 | < 0.5 | 1 (≈ 3.13 µM) | CC(=O)NC[C@H]1CN(c2ccc(-n3ccnn3)c(F)c2)C(=O)O1 [Example 6, (S)-N-[[3-[3-Fluoro-4-(1H-1,2,3-triazol-1-yl)phenyl]-2-oxo-5-oxazolidinyl]methyl]acetamide] | ED50 [3, 6]: 4.7 mg/kg
7 | < 0.5 | 1 (≈ 2.58 µM) | O=C(NC[C@H]1CN(c2ccc(-n3ccnn3)c(F)c2)C(=O)O1)C(Cl)Cl [Example 7, (S)-N-[[3-[3-Fluoro-4-(1H-1,2,3-triazol-1-yl)phenyl]-2-oxo-5-oxazolidinyl]methyl]-2,2-dichloroacetamide] | ED50 [3, 6]: 11.9 mg/kg
8 | 1 (≈ 3.13 µM) | 4 (≈ 12.5 µM) | CC(=O)NC[C@H]1CN(c2ccc(-n3nccn3)c(F)c2)C(=O)O1 [Example 8, (S)-N-[[3-[3-Fluoro-4-(2H-1,2,3-triazol-2-yl)phenyl]-2-oxo-5-oxazolidinyl]methyl]acetamide] | –
9 | 8 (≈ 22.8 µM) | > 32 | CC(=O)NC[C@H]1CN(c2ccc(-n3cnnc3S)c(F)c2)C(=O)O1 [Example 9, (S)-N-[[3-[3-Fluoro-4-(3-mercapto-4H-1,2,4-triazol-4-yl)phenyl]-2-oxo-5-oxazolidinyl]methyl]acetamide] | –
10 | 1 (≈ 2.74 µM) | 8 (≈ 21.9 µM) | CSc1nncn1-c1ccc(N2C[C@H](CNC(C)=O)OC2=O)cc1F [Example 10, (S)-N-[[3-[3-Fluoro-4-(3-methylthio-4H-1,2,4-triazol-4-yl)phenyl]-2-oxo-5-oxazolidinyl]methyl]acetamide] | –
11 | 1 (≈ 3.13 µM) | > 16 | CC(=O)NC[C@H]1CN(c2ccc(-n3cnnc3)c(F)c2)C(=O)O1 [Example 11, (S)-N-[[3-[3-Fluoro-4-(4H-1,2,4-triazol-4-yl)phenyl]-2-oxo-5-oxazolidinyl]methyl]acetamide] | –
12 | < 0.06 | 0.25 (≈ 0.724 µM) | CC(=O)NC[C@H]1CN(c2ccc(-n3ccc(C=O)c3)c(F)c2)C(=O)O1 [Example 12, (S)-N-[[3-[3-Fluoro-4-(1H-pyrrol-1-yl-3-carboxaldehyde)phenyl]-2-oxo-5-oxazolidinyl]methyl]acetamide] | –
13 | 0.25 (≈ 0.72 µM) | 1 (≈ 2.88 µM) | CC(=O)NC[C@H]1CN(c2ccc(-n3ccc(CO)c3)c(F)c2)C(=O)O1 [Example 13, (S)-N-[[3-[3-Fluoro-4-(3-hydroxymethyl-1H-pyrrol-1-yl)phenyl]-2-oxo-5-oxazolidinyl]methyl]acetamide] | –
14 | 0.25 (≈ 0.666 µM) | 2 (≈ 5.33 µM) | COC(=O)c1ccn(-c2ccc(N3C[C@H](CNC(C)=O)OC3=O)cc2F)c1 [Example 14, (S)-N-[[3-[3-Fluoro-4-(3-carbomethoxy-1H-pyrrol-1-yl)phenyl]-2-oxo-5-oxazolidinyl]methyl]acetamide] | –
15 | 0.25 (≈ 0.668 µM) | 1 (≈ 2.67 µM) | CON=Cc1ccn(-c2ccc(N3C[C@H](CNC(C)=O)OC3=O)cc2F)c1 [Example 15, (S)-N-[[3-[3-Fluoro-4-(1H-pyrrol-1-yl-3-carboxaldehyde)phenyl]-2-oxo-5-oxazolidinyl]methyl]acetamide, methoxime] | ED50 [3, 6]: 7.3 mg/kg
16 | < 0.25 | 1 (≈ 2.78 µM) | CC(=O)NC[C@H]1CN(c2ccc(-n3ccc(C=NO)c3)c(F)c2)C(=O)O1 [Example 16, (S)-N-[[3-[3-Fluoro-4-(3-(hydroxyiminomethyl)-1H-pyrrol-1-yl)phenyl]-2-oxo-5-oxazolidinyl]methyl]acetamide] | ED50 [3, 6]: 5.5 mg/kg
17 | 0.5 (≈ 1.38 µM) | 1 (≈ 2.77 µM) | CC(=O)NC[C@H]1CN(c2ccc(-n3cc(C(C)=O)nn3)c(F)c2)C(=O)O1 [Example 17, (S)-N-[[3-[3-Fluoro-4-(4-acetyl-1H-1,2,3-triazol-1-yl)phenyl]-2-oxo-5-oxazolidinyl]methyl]acetamide] | –
18 | 0.5 (≈ 1.38 µM) | 4 (≈ 11 µM) | CC(=O)NC[C@H]1CN(c2ccc(-n3cc(C(C)O)nn3)c(F)c2)C(=O)O1 (stereo partly drawn) [Example 18, (S)-N-[[3-[3-Fluoro-4-(4-(1-hydroxyethyl)-1H-1,2,3-triazol-1-yl)phenyl]-2-oxo-5-oxazolidinyl]methyl]acetamide] | –
19 | 0.5 (≈ 1.33 µM) | 4 (≈ 10.6 µM) | CC(=O)NC[C@H]1CN(c2ccc(-n3cc(C(C)=NO)nn3)c(F)c2)C(=O)O1 [Example 19] | –
20 | 1 (≈ 2.65 µM) | 4 (≈ 10.6 µM) | COC(=O)c1cn(-c2ccc(N3C[C@H](CNC(C)=O)OC3=O)cc2F)nn1 [Example 20, (S)-N-[[3-[3-Fluoro-4-(4-carbomethoxy-1H-1,2,3-triazol-1-yl)phenyl]-2-oxo-5-oxazolidinyl]methyl]acetamide] | –
21 | 0.25 (≈ 0.72 µM) | 0.5 (≈ 1.44 µM) | CC(=O)NC[C@H]1CN(c2ccc(-n3cc(C=O)nn3)c(F)c2)C(=O)O1 [Example 21, (S)-N-[[3-[3-Fluoro-4-(1H-1,2,3-triazol-1-yl-4-carboxaldehyde)phenyl]-2-oxo-5-oxazolidinyl]methyl]acetamide] | –
22 | 0.5 (≈ 1.44 µM) | 8 (≈ 23 µM) | CC(=O)NC[C@H]1CN(c2ccc(-n3cc(CO)cn3)c(F)c2)C(=O)O1 [Example 22, (S)-N-[[3-[3-Fluoro-4-(4-hydroxymethyl-1H-pyrazol-1-yl)phenyl]-2-oxo-5-oxazolidinyl]methyl]acetamide] | –
23 | 0.5 (≈ 1.2 µM) | 4 (≈ 9.63 µM) | CCOC(=O)C=Cc1ccn(-c2ccc(N3C[C@H](CNC(C)=O)OC3=O)cc2F)c1 [Example 23, (S)-N-[[3-[3-Fluoro-4-[3-(2-carboethoxyvinyl)-1H-pyrrol-1-yl]phenyl]-2-oxo-5-oxazolidinyl]methyl]acetamide] | –
24 | 0.5 (≈ 1.2 µM) | 4 (≈ 9.58 µM) | CCOC(=O)CCc1ccn(-c2ccc(N3C[C@H](CNC(C)=O)OC3=O)cc2F)c1 [Example 24, (S)-N-[[3-[3-Fluoro-4-[3-(2-carboethoxyethyl)-1H-pyrrol-1-yl]phenyl]-2-oxo-5-oxazolidinyl]methyl]acetamide] | –
25 | 0.5 (≈ 1.33 µM) | 4 (≈ 10.7 µM) | CC(=O)NC[C@H]1CN(c2ccc(-n3ccc(CCCO)c3)c(F)c2)C(=O)O1 [Example 25, (S)-N-[[3-[3-Fluoro-4-[3-(3-hydroxypropyl)-1H-pyrrol-1-yl]phenyl]-2-oxo-5-oxazolidinyl]methyl]acetamide] | –
26 | 0.5 (≈ 1.1 µM) | 8 (≈ 17.7 µM) | CC(=O)NC[C@H]1CN(c2ccc(-n3ccc(CCCNS(C)(=O)=O)c3)c(F)c2)C(=O)O1 [Example 26, (S)-N-[[3-[3-Fluoro-4-[3-(3-methanesulfonylaminopropyl)-1H-pyrrol-1-yl]phenyl]-2-oxo-5-oxazolidinyl]methyl]acetamide] | –
27 | – | – | CN[C@H](CC(C)C)C(=O)N[C@H]1C(=O)N[C@@H](CC(N)=O)C(=O)N[C@H]2C(=O)N[C@H]3C(=O)N[C@H](C(=O)N[C@H](C(=O)O)c4cc(O)cc(O)c4-c4cc3ccc4O)[C@H](O)c3ccc(c(Cl)c3)Oc3cc2cc(c3O[C@@H]2O[C@H](CO)[C@@H](O)[C@H](O)[C@H]2O[C@H]2C[C@](C)(N)[C@H](O)[C@H](C)O2)Oc2ccc(cc2Cl)[C@H]1O [Vancomycin, reference compound] | MIC ([1]; UC9912, read-out: Minimum Inhibitory Concentration, S. pneumoniae, UC 9912): 0.5 µg/mL (≈ 0.345 µM); ED50 ([3]; read-out: Control, ED50, control drug run alongside each test compound, S. aureus UC 9213, female mice): 2.2 mg/kg; Control, ED50 ([3]; control drug run alongside each test compound, S. aureus UC 9213, female mice, 8640 min): 2.4 mg/kg and 2.0 mg/kg and 1.2 mg/kg; MIC ([2]; UC9213, read-out: Minimum Inhibitory Concentration, S. aureus, UC 9213): 1 µg/mL (≈ 0.69 µM)
